Experimental data as given in ChEMBL document CHEMBL1201862, “PubChem BioAssay data set” (2004).
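Grown in 96-well plates, cells were treated for 48 hours with each compound at five concentrations. Insufficient inhibition: endpoint recorded as highest concentration tested. GI50 is the concentration that inhibits growth by half.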 The source made the active and inactive calls. Cut-off read from the data, not from the text of the source: active = GI50 up to about 1.1 µM and inactive = higher.

Columns and labels:
Experiment in all cases: NCI anticancer screen, dose series, 48 h
A498 = system: A498
BT-549 = system: BT-549
COLO 205 = system: COLO 205
HCT-116 = system: HCT-116
HL-60 = system: HL-60
HOP-62 = system: HOP-62
HT-29 = system: HT-29
Hs-578T = system: Hs-578T
KM12 = system: KM12
M14 = system: M14
MCF7 = system: MCF7
OVCAR-4 = system: OVCAR-4
OVCAR-5 = system: OVCAR-5
OVCAR-8 = system: OVCAR-8
PC-3 = system: PC-3
SK-MEL-2 = system: SK-MEL-2
SK-OV-3 = system: SK-OV-3
SNB-19 = system: SNB-19
T47D = system: T47D
UO-31 = system: UO-31

SMILES	GI50 (A498)	GI50 (BT-549)	GI50 (COLO 205)	GI50 (HCT-116)	GI50 (HL-60)	GI50 (HOP-62)	GI50 (HT-29)	GI50 (Hs-578T)	GI50 (KM12)	GI50 (M14)	GI50 (MCF7)	GI50 (OVCAR-4)	GI50 (OVCAR-5)	GI50 (OVCAR-8)	GI50 (PC-3)	GI50 (SK-MEL-2)	GI50 (SK-OV-3)	GI50 (SNB-19)	GI50 (T47D)	GI50 (UO-31)
CN(C)Cc1ccc(C(C)(C)C)cc1-c1cc(C(C)(C)C)ccc1CN(C)C	28.2 µM (inactive)	> 100 µM (inactive)	19.4 µM (inactive)	37.7 µM (inactive)	86.9 µM (inactive)	> 100 µM (inactive)	33 µM (inactive)	> 100 µM (inactive)	34.3 µM (inactive)	20.8 µM (inactive)	37.6 µM (inactive)	53.7 µM (inactive)	> 100 µM (inactive)	> 100 µM (inactive)	27.7 µM (inactive)	76.9 µM (inactive)	> 100 µM (inactive)	> 100 µM (inactive)	48.2 µM (inactive)	42.7 µM (inactive)
CCCCC(=O)/C=c1/cc(C)[nH]c2cccc3cnn1c32	> 100 µM (inactive)	> 100 µM (inactive)	> 100 µM (inactive)	> 100 µM (inactive)	> 100 µM (inactive)	> 100 µM (inactive)	60.1 µM (inactive)	> 100 µM (inactive)	> 100 µM (inactive)	> 100 µM (inactive)	> 100 µM (inactive)	> 100 µM (inactive)	> 100 µM (inactive)	> 100 µM (inactive)	49.1 µM (inactive)	> 100 µM (inactive)	> 100 µM (inactive)	> 100 µM (inactive)	16 µM (inactive)	> 100 µM (inactive)
CCc1nc2c(c(N(C)C)c1C(=O)OC)CCc1ccccc1-2	20.2 µM (inactive)	35 µM (inactive)	18.7 µM (inactive)	24.8 µM (inactive)	2.86 µM (inactive)	24.8 µM (inactive)	27.7 µM (inactive)	51.1 µM (inactive)	30.9 µM (inactive)	24 µM (inactive)	14.4 µM (inactive)	44.8 µM (inactive)	32.2 µM (inactive)	34.1 µM (inactive)	18 µM (inactive)	17.8 µM (inactive)	13.8 µM (inactive)	38.4 µM (inactive)	11 µM (inactive)	37.4 µM (inactive)
O=[N+]([O-])c1ccc(Sc2c3ccccc3nc3ccccc23)cn1	> 100 µM (inactive)	14.6 µM (inactive)	3.36 µM (inactive)	3.6 µM (inactive)	10.8 µM (inactive)	> 42.6 µM (inactive)	9.02 µM (inactive)	18 µM (inactive)	33.1 µM (inactive)	8.97 µM (inactive)	4.48 µM (inactive)	21.2 µM (inactive)	> 62.4 µM (inactive)	15.3 µM (inactive)	15.5 µM (inactive)	25.4 µM (inactive)	> 53.8 µM (inactive)	24.5 µM (inactive)	4.92 µM (inactive)	15.3 µM (inactive)
CCOC(=O)C(C/C=C/CO)N(C)C(=O)OC(C)(C)C (stereo not given)	> 100 µM (inactive)	> 100 µM (inactive)	> 100 µM (inactive)	> 100 µM (inactive)	> 100 µM (inactive)	> 100 µM (inactive)	> 100 µM (inactive)	53.5 µM (inactive)	> 100 µM (inactive)	> 100 µM (inactive)	> 100 µM (inactive)	> 100 µM (inactive)	> 100 µM (inactive)	> 100 µM (inactive)	> 100 µM (inactive)	> 100 µM (inactive)	> 100 µM (inactive)	> 100 µM (inactive)	> 100 µM (inactive)	> 100 µM (inactive)
O=C(O)Cc1ccc(Nc2nc3ccccc3nc2C(=O)O)cc1	> 100 µM (inactive)	> 100 µM (inactive)	> 100 µM (inactive)	> 100 µM (inactive)	> 100 µM (inactive)	> 100 µM (inactive)	> 100 µM (inactive)	> 100 µM (inactive)	> 100 µM (inactive)	> 100 µM (inactive)	> 100 µM (inactive)	> 100 µM (inactive)	> 100 µM (inactive)	> 100 µM (inactive)	> 100 µM (inactive)	> 100 µM (inactive)	> 100 µM (inactive)	> 100 µM (inactive)	> 100 µM (inactive)	> 100 µM (inactive)
O=C(CCOS(=O)(=O)CF)N1CCN(C(=O)CCOS(=O)(=O)CF)CC1	> 100 µM (inactive)	> 100 µM (inactive)	> 80.7 µM (inactive)	57 µM (inactive)	5.06 µM (inactive)	43.2 µM (inactive)	> 100 µM (inactive)	22.2 µM (inactive)	> 100 µM (inactive)	58.6 µM (inactive)	18.6 µM (inactive)	> 100 µM (inactive)	> 100 µM (inactive)	60.1 µM (inactive)	> 100 µM (inactive)	> 100 µM (inactive)	> 27.2 µM (inactive)	58.3 µM (inactive)	43.6 µM (inactive)	66.7 µM (inactive)
N=C(N)NS(=O)(=O)c1ccc(NCc2c3ccccc3nc3ccccc23)cc1	1.17 µM (inactive)	7.16 µM (inactive)	> 80.9 µM (inactive)	3.01 µM (inactive)	0.0679 µM (active)	0.678 µM (active)	33.3 µM (inactive)	1.5 µM (inactive)	6.24 µM (inactive)	4.67 µM (inactive)	0.0566 µM (active)	39.5 µM (inactive)	33.3 µM (inactive)	3.78 µM (inactive)	16.1 µM (inactive)	> 20 µM (inactive)	2.73 µM (inactive)	0.711 µM (active)	1.16 µM (inactive)	18.6 µM (inactive)
Cc1nc2ccccc2n1CCc1nc2ccccc2[nH]1	> 100 µM (inactive)	> 100 µM (inactive)	> 100 µM (inactive)	> 100 µM (inactive)	> 100 µM (inactive)	> 100 µM (inactive)	> 100 µM (inactive)	> 100 µM (inactive)	> 100 µM (inactive)	> 100 µM (inactive)	> 100 µM (inactive)	> 100 µM (inactive)	> 100 µM (inactive)	> 100 µM (inactive)	> 100 µM (inactive)	> 100 µM (inactive)	> 100 µM (inactive)	> 100 µM (inactive)	> 100 µM (inactive)	> 100 µM (inactive)
COc1ccc(N(c2ccc(C#N)cc2)c2ccc(C#N)cc2)cc1	65.3 µM (inactive)	> 100 µM (inactive)	31.9 µM (inactive)	93.5 µM (inactive)	3.97 µM (inactive)	> 100 µM (inactive)	9.89 µM (inactive)	> 100 µM (inactive)	8.43 µM (inactive)	> 100 µM (inactive)	26 µM (inactive)	> 100 µM (inactive)	> 100 µM (inactive)	> 100 µM (inactive)	> 100 µM (inactive)	> 100 µM (inactive)	> 100 µM (inactive)	> 100 µM (inactive)	4.57 µM (inactive)	22.2 µM (inactive)
Nc1c2c(nc3cc(F)c(F)cc13)CCC2	24.7 µM (inactive)	> 100 µM (inactive)	43.5 µM (inactive)	38 µM (inactive)	2.82 µM (inactive)	> 100 µM (inactive)	31.8 µM (inactive)	> 100 µM (inactive)	50.2 µM (inactive)	61.5 µM (inactive)	33.3 µM (inactive)	58.2 µM (inactive)	49.9 µM (inactive)	44.5 µM (inactive)	39.8 µM (inactive)	> 100 µM (inactive)	62.1 µM (inactive)	48.6 µM (inactive)	96.6 µM (inactive)	4.05 µM (inactive)
CC(C)OC(=O)OCSc1ccccc1/N=C/c1cccc([N+](=O)[O-])c1	> 10 µM (inactive)	> 10 µM (inactive)	> 10 µM (inactive)	> 10 µM (inactive)	> 10 µM (inactive)	> 10 µM (inactive)	> 10 µM (inactive)	> 10 µM (inactive)	> 10 µM (inactive)	> 10 µM (inactive)	> 10 µM (inactive)	> 10 µM (inactive)	> 10 µM (inactive)	> 10 µM (inactive)	> 10 µM (inactive)	> 10 µM (inactive)	> 10 µM (inactive)	> 10 µM (inactive)	> 10 µM (inactive)	> 10 µM (inactive)
CCCCCCCCCCCCCCCCOCC(Cl)COP(=O)(O)OP(=O)(O)OCC1OC(n2cnc3c(N)ncnc32)C(O)C1O (stereo not given)	> 100 µM (inactive)	> 100 µM (inactive)	> 100 µM (inactive)	38.1 µM (inactive)	> 100 µM (inactive)	> 100 µM (inactive)	> 100 µM (inactive)	32.4 µM (inactive)	86.9 µM (inactive)	83.6 µM (inactive)	> 100 µM (inactive)	> 100 µM (inactive)	50.7 µM (inactive)	> 100 µM (inactive)	29.9 µM (inactive)	> 100 µM (inactive)	68.5 µM (inactive)	> 100 µM (inactive)	84.5 µM (inactive)	61 µM (inactive)
CCN(CC)CCCNc1ncc(C)c2c1c1ccc3c(O)cccc3c1n2C	13.6 µM (inactive)	1.89 µM (inactive)	5.52 µM (inactive)	1.05 µM (active)	0.603 µM (active)	0.964 µM (active)	1.21 µM (inactive)	1.68 µM (inactive)	1.52 µM (inactive)	4.15 µM (inactive)	0.191 µM (active)	1.66 µM (inactive)	5.57 µM (inactive)	1.43 µM (inactive)	0.687 µM (active)	12.2 µM (inactive)	4.9 µM (inactive)	1.07 µM (active)	17.9 µM (inactive)	7.89 µM (inactive)
